From patent US20110293524A1, “METHODS AND COMPOSITIONS FOR THE REGULATION OF LECTIN COMPLEMENT PATHWAY (LCP)-ASSOCIATED COMPLEMENT ACTIVATION IN HYPERGLYCEMIC MYOCARDIAL DAMAGE” (The Brigham and Women"s Hosptial Inc., priority 2008, published 2011) come the findings set out here.

Common to all, as to format: in vivo
Assay [1] concerns diabetic WT mice. Briefly: Heart/body weight ratio after 2 weeks of diabetes. Particulars: STZ-diabetic WT mice, insulin-treated, no MI/R. Here is the method:
(§1) All animals used in MI/R experiments were male mice aged 8-12 wk old. C57BL/6 [wildtype (WT)] mice were obtained from Charles River Laboratories (Wilmington, Mass.). MBL null animals 21, back-crossed 8-10 generations onto the C57BL/6 background, were used as previously described^2,22. All procedures were reviewed and conducted in accordance with the Institute's Animal Care and Use Committee (IACUC). Experiments were performed according to the standards and principles set forth in the National Institutes of Health (Guide for the Care and Use of Laboratory Animals-DHHS publication no. (NIH) 85-23, revised 1985). Mice were made diabetic by a single injection of freshly prepared streptozotocin (STZ) solution (200 mg/kg body weight in citrate saline, pH 4.2, i.p., ALEXIS, Lausen, Switzerland)^23. The mice were housed in cages of four mice each and had unlimited access to water and standard mouse chow. Three days after STZ injection and immediately before MI/R studies, the urine glucose was assessed with Glucostix (Diastix, Bayer, Elkhart, Ind.). Mice with urine glucose>500 mg/dl in both tests were presumed to be diabetic. […]
(§2) Hearts were excised and fixed in 10% formalin PBS at 4° C. overnight. […] Serum troponin I concentrations were measured as an index of myocardial cell death using a commercially available ELISA kit (Life Diagnostics, West Chester, Pa.)^26.

Assay [2] concerns diabetic WT mice. Briefly: Left ventricular ejection fraction by echocardiography after MI/R (15 min ischemia, 4 h reperfusion). Particulars: STZ-diabetic WT mice, insulin 2-6 IU i.p. daily for 2 weeks, vs non-treated diabetic WT mice. As for the experimental part: as §1, with “Mice were made diabetic by a single injection of freshly prepared streptozotocin (STZ) solution (200 mg/kg body weight in citrate saline, pH 4.2, i.p., ALEXIS, Lausen, Switzerland)^23. The mice were housed in cages of four mice each and had unlimited access to water and standard mouse chow.” left out, “Ind.).” for “Ind.). Mice with urine glucose>500 mg/dl in both tests were presumed to be diabetic.”
(§3) Echocardiography was performed after mice had underwent experimental MI/R as described above. It has been shown that in the mouse model of MI/R, myocardial damage via infarct analysis is directly correlated with loss of function as measured by echocardiography^2. […] Ejection fraction (EF) was calculated both via left ventricular M-mode measurements and via long axis length and short axis area measurements of the left ventricle (LV)^24,25. […] In some animals, long axis and short axis area measurements of the LV were assessed prior to MI/R to assess myocardial dimensions under nonischemic conditions.

For assay [3], the system named is diabetic WT mice. Description: Left ventricular long and short axis area measurements by echocardiography before MI/R. Conditions: STZ-diabetic WT mice, insulin 2-6 IU i.p. daily for 2 weeks. Here is the method: as §1, with “Mice were made diabetic by a single injection of freshly prepared streptozotocin (STZ) solution (200 mg/kg body weight in citrate saline, pH 4.2, i.p., ALEXIS, Lausen, Switzerland)^23. The mice were housed in cages of four mice each and had unlimited access to water and standard mouse chow.” left out, “Ind.).” for “Ind.). Mice with urine glucose>500 mg/dl in both tests were presumed to be diabetic.”
as §3

Assay [4] relates to diabetic WT mice. Briefly: Neutrophil infiltration into the myocardium following MI/R (Ly-6G staining, infrared imaging). Conditions: diabetic WT mice treated with insulin; 15 min ischemia, 4 h reperfusion. As for the experimental part:
as §1, with “diabetic. A group of STZ-injected mice was intensively treated with Lantus insulin (Sanofi-Aventis, Bridgewater, N.J.) to rule out any potentially cardiotoxic effects of STZ. Dependent on the individual daily urine glucose, 2-6 IU of insulin was injected (i.p.) daily.” for “diabetic.”

The test system of assay [5] is diabetic WT mice. Briefly: Cardiac progenitor cell (CPC) numbers in heart sections (SCF R/c-kit staining). Conditions: diabetic WT mice treated with insulin, two weeks of diabetes. As for the experimental part: as §1, with “diabetic. A group of STZ-injected mice was intensively treated with Lantus insulin (Sanofi-Aventis, Bridgewater, N.J.) to rule out any potentially cardiotoxic effects of STZ. Dependent on the individual daily urine glucose, 2-6 IU of insulin was injected (i.p.) daily.” for “diabetic.”

In assay [6] the test system is diabetic WT mice. Briefly: Serum troponin I concentration after MI/R (ELISA). Conditions: insulin-treated diabetic animals vs non-treated diabetic WT mice; 15 min ischemia, 4 h reperfusion. Here is the method:
as §1, §2

For the substance insulin, in the assay on diabetic WT mice [1], the “diabetic cardiomyopathy / hypertrophic remodeling by heart/body weight ratios” value is given as “protected diabetic WT mice from diabetic cardiomyopathy”. Moreover, the “cardiac function (ejection fraction) following MI/R” value with diabetic WT mice [2] is “prevented loss of cardiac function following MI/R”. Moreover, the “diabetic cardiomyopathy as measured by long and short axis measurements via echocardiography” value in the assay with diabetic WT mice [3] was “protected diabetic WT mice from diabetic cardiomyopathy”. In the assay with diabetic WT mice [4], the “inflammatory response (neutrophil infiltration into cardiac tissue) after MI/R” value is recorded as “attenuated the inflammatory response”. Further, the “loss of cardiac progenitor cells (CPC) in diabetes” value with diabetic WT mice [5] is given as “reversed this effect”. The “serum troponin I concentrations after MI/R” value in the assay with diabetic WT mice [6] is given as “significantly reduced”.
